Experimental data published in ChEMBL document CHEMBL1201862, “PubChem BioAssay data set” (2004).
Active and inactive are the calls of the source.

Key:
[1] = molecular target: T1, Apoptotic protease-activating factor 1 (Homo sapiens, UniProt O14727); type: functional
T1 sequence (O14727 whole entry): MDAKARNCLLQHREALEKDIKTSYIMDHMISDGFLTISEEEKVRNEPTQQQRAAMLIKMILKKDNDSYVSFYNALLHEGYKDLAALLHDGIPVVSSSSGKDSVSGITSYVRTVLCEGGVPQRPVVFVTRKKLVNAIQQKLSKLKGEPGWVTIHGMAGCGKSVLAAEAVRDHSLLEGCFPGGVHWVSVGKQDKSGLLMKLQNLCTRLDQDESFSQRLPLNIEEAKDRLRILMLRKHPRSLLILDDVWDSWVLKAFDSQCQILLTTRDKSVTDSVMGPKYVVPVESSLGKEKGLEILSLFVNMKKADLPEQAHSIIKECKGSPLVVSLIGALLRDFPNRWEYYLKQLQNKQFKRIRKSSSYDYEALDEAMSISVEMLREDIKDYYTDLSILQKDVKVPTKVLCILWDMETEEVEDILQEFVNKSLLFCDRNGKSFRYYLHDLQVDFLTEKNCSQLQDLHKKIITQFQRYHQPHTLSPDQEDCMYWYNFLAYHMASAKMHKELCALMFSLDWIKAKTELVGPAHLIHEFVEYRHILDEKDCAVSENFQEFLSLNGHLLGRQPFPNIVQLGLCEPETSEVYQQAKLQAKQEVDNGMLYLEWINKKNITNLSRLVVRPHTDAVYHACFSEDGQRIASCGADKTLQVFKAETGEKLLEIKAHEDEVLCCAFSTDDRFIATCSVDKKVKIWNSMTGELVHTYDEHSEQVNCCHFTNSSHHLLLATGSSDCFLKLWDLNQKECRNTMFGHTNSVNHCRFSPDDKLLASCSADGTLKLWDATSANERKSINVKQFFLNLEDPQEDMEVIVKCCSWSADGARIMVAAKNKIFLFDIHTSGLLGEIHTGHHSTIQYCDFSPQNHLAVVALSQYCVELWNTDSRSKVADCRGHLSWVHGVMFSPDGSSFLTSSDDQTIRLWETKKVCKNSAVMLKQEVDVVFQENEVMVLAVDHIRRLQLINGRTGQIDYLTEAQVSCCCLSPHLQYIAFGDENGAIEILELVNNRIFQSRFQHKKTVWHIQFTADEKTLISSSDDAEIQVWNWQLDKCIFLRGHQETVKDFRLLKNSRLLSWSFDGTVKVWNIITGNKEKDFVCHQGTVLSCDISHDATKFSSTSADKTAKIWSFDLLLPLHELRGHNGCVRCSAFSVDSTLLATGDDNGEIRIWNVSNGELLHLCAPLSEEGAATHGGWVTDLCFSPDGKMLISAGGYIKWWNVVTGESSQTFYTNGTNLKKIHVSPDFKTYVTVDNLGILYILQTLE

[2] = molecular target: T2, Tyrosyl-DNA phosphodiesterase 2 (Homo sapiens, UniProt O95551); assay: potency against TDP2 phosphodiesterase activity – biochemical, epi absorbance, IC50, dose response (AID 743297)
T2 sequence (O95551 whole entry): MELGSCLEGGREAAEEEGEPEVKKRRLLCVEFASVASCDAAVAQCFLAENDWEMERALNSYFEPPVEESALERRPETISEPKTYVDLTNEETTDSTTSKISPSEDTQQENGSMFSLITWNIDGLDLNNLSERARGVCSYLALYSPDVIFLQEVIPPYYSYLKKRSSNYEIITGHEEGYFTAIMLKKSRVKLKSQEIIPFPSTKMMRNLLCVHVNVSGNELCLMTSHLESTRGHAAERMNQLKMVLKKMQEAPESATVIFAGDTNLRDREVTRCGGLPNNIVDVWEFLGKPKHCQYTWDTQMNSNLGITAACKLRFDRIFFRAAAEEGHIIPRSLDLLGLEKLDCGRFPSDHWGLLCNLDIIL

[3] = molecular target: T3, Histone-lysine N-methyltransferase NSD2 (Homo sapiens, UniProt O96028); type: biochemical
T3 sequence (O96028 whole entry): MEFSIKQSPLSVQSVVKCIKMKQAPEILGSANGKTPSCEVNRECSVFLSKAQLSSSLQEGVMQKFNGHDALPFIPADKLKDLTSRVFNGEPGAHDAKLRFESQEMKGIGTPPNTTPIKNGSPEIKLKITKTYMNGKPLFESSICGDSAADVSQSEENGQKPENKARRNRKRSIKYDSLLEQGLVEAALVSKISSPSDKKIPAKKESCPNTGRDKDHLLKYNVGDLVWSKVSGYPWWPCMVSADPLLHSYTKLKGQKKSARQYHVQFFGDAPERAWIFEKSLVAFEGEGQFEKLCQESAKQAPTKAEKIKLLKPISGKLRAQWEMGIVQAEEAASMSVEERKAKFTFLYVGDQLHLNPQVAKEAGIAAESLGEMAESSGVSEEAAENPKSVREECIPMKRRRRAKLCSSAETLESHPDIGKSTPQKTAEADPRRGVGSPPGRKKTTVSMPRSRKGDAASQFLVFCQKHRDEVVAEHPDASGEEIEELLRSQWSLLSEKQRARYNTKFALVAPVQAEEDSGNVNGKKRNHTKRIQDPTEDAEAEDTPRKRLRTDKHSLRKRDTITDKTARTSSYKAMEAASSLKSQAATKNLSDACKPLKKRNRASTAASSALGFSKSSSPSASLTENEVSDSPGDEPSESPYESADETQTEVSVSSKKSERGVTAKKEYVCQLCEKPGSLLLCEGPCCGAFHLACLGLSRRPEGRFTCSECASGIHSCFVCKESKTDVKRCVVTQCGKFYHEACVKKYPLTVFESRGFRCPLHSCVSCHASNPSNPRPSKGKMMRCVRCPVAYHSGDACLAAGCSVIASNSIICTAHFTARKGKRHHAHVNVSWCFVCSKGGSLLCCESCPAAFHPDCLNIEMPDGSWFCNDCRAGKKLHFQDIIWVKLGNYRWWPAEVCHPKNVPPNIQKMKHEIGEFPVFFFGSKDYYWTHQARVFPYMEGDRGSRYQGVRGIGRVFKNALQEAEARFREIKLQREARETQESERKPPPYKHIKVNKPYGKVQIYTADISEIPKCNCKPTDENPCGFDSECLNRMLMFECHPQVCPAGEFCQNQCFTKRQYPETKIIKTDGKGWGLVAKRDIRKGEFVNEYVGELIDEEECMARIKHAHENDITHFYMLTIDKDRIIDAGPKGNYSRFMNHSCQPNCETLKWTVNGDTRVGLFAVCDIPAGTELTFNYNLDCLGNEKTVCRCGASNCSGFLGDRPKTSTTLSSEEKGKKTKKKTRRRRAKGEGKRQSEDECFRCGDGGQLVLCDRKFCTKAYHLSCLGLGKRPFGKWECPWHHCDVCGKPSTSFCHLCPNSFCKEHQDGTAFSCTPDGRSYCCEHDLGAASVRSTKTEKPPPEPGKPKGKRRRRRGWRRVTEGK

[4] = Luminescence Cell-Based Dose Response HTS to Identify Inhibitors of 5'UTR Stem-Loop Driven Prion Protein mRNA Translation in H4 Neuroglioblastoma Cells. [Related pubchem assays: 1827 (Project Summary), 1813 (Primary HTS)]; type: functional

SMILES | IC50 [1] | IC50 [2] | AC50 [3] | EC50 [4]
O=C1C=C(Nc2ccccc2C(=O)O)c2ccccc2C1=O | 3.84 µM (active) | 6.56 µM (active) |  | 
COc1ccc(NC(=S)Nc2ccc3nsnc3c2)cc1 | 10.8 µM (active) | 9.93 µM (active) | 3.57 µM (active) | 
CC(C)(C)c1cc[n+](C2=C([N-]S(=O)(=O)c3ccccc3)C(=O)c3ccccc3C2=O)cc1 |  |  | 2.63 µM (active) | 25 µM (active)
